Test results published in paper PMC7115414 (European Journal of Medicinal Chemistry, 2017).

Legend:
SARS-CoV M^pro [1] = target: T1, SARS-CoV M^pro (Severe acute respiratory syndrome coronavirus, UniProt P0C6X7); type: biochemical
SARS-CoV M^pro [2] = target: T1, SARS-CoV M^pro; assay: biochemical

| SMILES | inhibition type (reciprocal plots, velocity versus substrate concentration) (SARS-CoV M^pro [1]) | reversibility (plot of enzyme concentration versus reaction velocity) (SARS-CoV M^pro [1]) | α (effect of inhibitor on the affinity of the enzyme for its substrate) (SARS-CoV M^pro [1]) | IC50 (SARS-CoV M^pro [2]) |
| --- | --- | --- | --- | --- |
| Brc1ccc(SSc2ncccn2)cc1 [Compound 3-39, 2-((4-bromophenyl)disulfanyl)pyrimidine] | non-competitive inhibitor | reversible | < 1 | – |
| COC(=O)c1c[nH]c(SSc2ccccc2C(=O)OC)n1 [Compound 3-16, Methyl 2-((2-(methoxycarbonyl)phenyl)disulfanyl)-1H-imidazole-4-carboxylate] | – | – | – | 3.96 ± 0.19 µM |
| CCOC(=O)c1ccccc1SSc1nc(C(=O)OC)c[nH]1 [Compound 3-15, Methyl 2-((2-(ethoxycarbonyl)phenyl)disulfanyl)-1H-imidazole-4-carboxylate] | – | – | – | 5.95 ± 0.363 µM |
| COC(=O)c1c[nH]c(SSc2ccccc2[N+](=O)[O-])n1 [Compound 3-14, Methyl 2-((2-nitrophenyl)disulfanyl)-1H-imidazole-4-carboxylate] | – | – | – | 2.075 ± 0.016 µM |
| COC(=O)c1c[nH]c(SSc2ccc(Cl)cc2)n1 [Compound 3-17, Methyl 2-((4-chlorophenyl)disulfanyl)-1H-imidazole-4-carboxylate] | – | – | – | 4.13 ± 0.094 µM |
| Clc1ccc(SSc2nnco2)cc1 [Compound 3-31, 2-((4-chlorophenyl)disulfanyl)-1,3,4-oxadiazole] | non-competitive inhibitor | reversible | < 1 | – |
